Reference: US9592307B2, “Compound and photoacoustic imaging contrast medium containing the compound” (CANON KABUSHIKI KAISHA, priority 2012, dated 2017)
Ends that are not written are not given here.

Key:
[1] = Retentivity in blood, Colon 26 tumor-bearing mice; assay type: in vivo, mouse; settings: tail vein, 13 nmol dye, 24 hours after administration
Method: In order to examine the retentivity in blood and the tumor accumulation of the compound prepared as described above, M5k-ICG, M10k-ICG, M20k-ICG, M30k-ICG, M40k-ICG, and D20k-ICG2 were administered to tail veins of tumor-bearing mice which had been transplanted a Colon 26 cell line. The amount of administration was specified to be 13 nmol in terms of the amount of dye.
A blood sample was taken from a mouse 24 hours after administration, and the blood, 1% Triron, and DMSO were mixed at 2:9:9 in a plastic tube. The amount of dye in the blood was quantified by using IVIS (registered trademark) Imaging System 200 Series (produced by Caliper Life Science Inc.) and measuring the fluorescent intensity in the state of the plastic tube. The proportion of the amount of migration of the dye to the blood relative to the amount (dye 13 nmol) of administration (% injected dose: abbreviated to % ID) per unit weight of the blood is shown in Table 8 as the retentivity of the compound in blood (% ID/g). […]
An intravenous injection of 100 microliters (13 nmol in terms of dye) of M20k-ICGATT into a tumor-bearing mouse model was performed, where a Colon 26 cell was subcutaneously transplanted into the BALB/c Slc-nu/nu mouse. The accumulation in the Colon 26 cell mass and the blood 24 hours after the administration was evaluated by the method described in Example 12.

[2] = rat, ICG administered to the blood alone; cited from earlier work
[3] = system: Colon 26 mouse colon cancer cells containing artificially introduced HER2 genes; test: Tumor accumulation of PEG including capture molecule, Colon 26 (HER2) versus Colon 26 (WT) tumors; assay type: in vivo; settings: intravenous, 13 nmol in terms of ICG, 24 hours after administration
Text: In the evaluation of tumor accumulation, female outbred line BALB/c Slc-nu/nu mouse (6 week-old at the time of purchase) (Japan SLC Inc.) was used. The mouse was adapted to an environment in which a diet and drinking water were able to be consumed freely for a week before the mouse was transplanted a tumor, while standard diet and bed were employed. About 1 week before an imaging experiment, 1×10^6 of Colon 26 mouse colon cancer cells (RIKEN) were subcutaneously injected into each of the right shoulder and the right thigh of the mouse and 1×10^6 of Colon 26 mouse colon cancer cells containing artificially introduced HER2 genes were subcutaneously injected into each of the left shoulder and the left thigh of the mouse. All tumors became established until the experiment and the weights of the mice were 17 to 22 g. […] The amount of dye in the cancer tissue was quantified by using IVIS (registered trademark) Imaging System 200 Series (XENOGEN) and measuring the fluorescent intensity of the solution of dye extracted from the tumor tissue and the standard solution for calibration in the state of the plastic tube. […]
In addition, ratios of the amount of accumulation into the Colon 26 mouse colon cancer cells containing artificially introduced HER2 genes relative to the amount of accumulation into the Colon 26 mouse colon cancer cells were calculated and are summarized in Table 12. […]

| Molecule | Retentivity in blood [1] [% ID] | Time after administration at which photoacoustic signal is reduced to the same level as that of the blood [2] | Colon26 (HER2)/Colon26 (WT) Ratio of amount of tumor accumulation [3] |
| --- | --- | --- | --- |
| CC1(C)C(/C=C/C=C/C=C/C=C2\N(CCCCS(=O)(=O)O)c3ccc4ccccc4c3C2(C)C)=[N+](CCCCS(=O)(=O)[O-])c2ccc3ccccc3c21 [ICG, Indocyanine Green] | 0.16 | several tens of minutes |  |
| pe-PEG40: PEG ME-400MA (MW 40,000) modified with ICG and peptide MARSGLGGKGSC (also: conjugated to PEG ME-400MA (40 kDa) together with ICG) |  |  | 0.88 |
| pe-PEG20: PEG ME-200MA (MW 20,000) modified with ICG and peptide MARSGLGGKGSC (also: conjugated to PEG ME-200MA (20 kDa) together with ICG) |  |  | 0.76 |
